The values that follow come from patent publication US20260085077A1, “HETEROCYCLIC DERIVATIVES AS JANUS KINASE INHIBITORS” (CHIESI FARMACEUTICI S.P.A., priority 2022, published 2026).

The test system of this assay is IL-13 induced pSTAT6 in BEAS-2B human cell line. The experiment in a line: Inhibition of IL-13 induced pSTAT6 in BEAS. In kind it is cell-based. The following applies: IL-13 induced pSTAT6, BEAS-2B cells, ELISA. As to the method:
BEAS-2B human cell line was seeded (100.000 cells/well) and incubated for 48 h at 37° C., 5% CO2, 95% humidity. Compounds were added and incubated 30 min followed by IL-13 as trigger. After 30 min incubation, cells were lysed and pSTAT6 determined by Fastscan phospho-stat6 (Tyr641) sandwich ELISA kit (cell signaling). Inhibitors were tested at 11 consecutive […] dilutions starting from 10 μM (10 μM-40 pM) in duplicate. Calculation of IC50 data, curves and QC analysis were made using Excel tools and GraphPadPrism software. QC criteria parameters: Z′≥0.35, Hill Slope range 0.5 to 5, S:B>2.
A general note: In an ELISA, binding on a coated surface is turned into a signal by an enzyme label.
As usually defined, the IC50 is the concentration needed to halve the response being measured. A high value points to lower potency. `COc1cc2c(cc1-n1nc(NC(=O)OCCN(C)C)c3cnc(-c4cnn5cccnc45)cc31)SCCN2` [Example 28, 2-(dimethylamino)ethyl (1-(6-methoxy-3,4-dihydro-2H-benzo[b][1,4]thiazin-7-yl)-6-(pyrazolo[1,5-a]pyrimidin-3-yl)-1H-pyrazolo[4,3-c]pyridin-3-yl)carbamate] had an IC50 of less than 5.01 nM.

As to `COc1cc2c(cc1-n1nc(NC(=O)OCCN3CCOCC3)c3cnc(-c4cnn5cccnc45)cc31)SCCN2` [Example 29, 2-morpholinoethyl (1-(6-methoxy-3,4-dihydro-2H-benzo[b][1,4]thiazin-7-yl)-6-(pyrazolo[1,5-a]pyrimidin-3-yl)-1H-pyrazolo[4,3-c]pyridin-3-yl)carbamate], the concentration for half-maximal inhibition (IC50) was less than 5.01 nM.

Consider `COc1cc2c(cc1-n1nc(NC(=O)OCCCN3CCN(C)CC3)c3cnc(-c4cnn5cccnc45)cc31)SCCN2` [Example 30, 3-(4-methylpiperazin-1-yl)propyl (1-(6-methoxy-3,4-dihydro-2H-benzo[b][1,4]thiazin-7-yl)-6-(pyrazolo[1,5-a]pyrimidin-3-yl)-1H-pyrazolo[4,3-c]pyridin-3-yl)carbamate], for which the IC50 was 5.01 to 50.1 nM.

As to `COc1cc2c(cc1-n1nc(NC(=O)OCCN3CCCCC3)c3cnc(-c4cnn5cccnc45)cc31)SCCN2` [Example 31, 2-(piperidin-1-yl)ethyl (1-(6-methoxy-3,4-dihydro-2H-benzo[b][1,4]thiazin-7-yl)-6-(pyrazolo[1,5-a]pyrimidin-3-yl)-1H-pyrazolo[4,3-c]pyridin-3-yl)carbamate], the IC50 is 5.01 to 50.1 nM.

For `COc1cc2c(cc1-n1nc(NC(=O)O[C@@H]3CCN(C)C3)c3cnc(-c4cnn5cccnc45)cc31)SCCN2` [Example 32, (R)-1-methylpyrrolidin-3-yl (1-(6-methoxy-3,4-dihydro-2H-benzo[b][1,4]thiazin-7-yl)-6-(pyrazolo[1,5-a]pyrimidin-3-yl)-1H-pyrazolo[4,3-c]pyridin-3-yl)carbamate], the IC50 is 5.01 to 50.1 nM.

In turn, `COc1cc2c(cc1-n1nc(NC(=O)O[C@H]3CCN(C)C3)c3cnc(-c4cnn5cccnc45)cc31)SCCN2` [Example 33, (S)-1-methylpyrrolidin-3-yl (1-(6-methoxy-3,4-dihydro-2H-benzo[b][1,4]thiazin-7-yl)-6-(pyrazolo[1,5-a]pyrimidin-3-yl)-1H-pyrazolo[4,3-c]pyridin-3-yl)carbamate] showed an IC50 of 5.01 to 50.1 nM.

As for `COc1cc2c(cc1-n1nc(NC(=O)OCC3(N(C)C)CCOCC3)c3cnc(-c4cnn5cccnc45)cc31)SCCN2` [Example 34, (4-(dimethylamino)tetrahydro-2H-pyran-4-yl)methyl (1-(6-methoxy-3,4-dihydro-2H-benzo[b][1,4]thiazin-7-yl)-6-(pyrazolo[1,5-a]pyrimidin-3-yl)-1H-pyrazolo[4,3-c]pyridin-3-yl)carbamate], the IC50 was 5.01 to 50.1 nM.

In turn, `COc1cc2c(cc1-n1nc(NC(=O)OCCN3CC[C@@H](OC)C3)c3cnc(-c4cnn5cccnc45)cc31)SCCN2` [Example 35, (R)-2-(3-methoxypyrrolidin-1-yl)ethyl (1-(6-methoxy-3,4-dihydro-2H-benzo[b][1,4]thiazin-7-yl)-6-(pyrazolo[1,5-a]pyrimidin-3-yl)-1H-pyrazolo[4,3-c]pyridin-3-yl)carbamate] had an IC50 of 5.01 to 50.1 nM.

With `COc1cc2c(cc1-n1nc(NC(=O)N(C)C)c3cnc(-c4cnn5cccnc45)cc31)SCCN2` [Example 36, 3-(1-(6-methoxy-3,4-dihydro-2H-benzo[b][1,4]thiazin-7-yl)-6-(pyrazolo[1,5-a]pyrimidin-3-yl)-1H-pyrazolo[4,3-c]pyridin-3-yl)-1,1-dimethylurea], the half-maximal inhibitory concentration (IC50) was less than 5.01 nM.

The molecule `COc1cc2c(cc1-n1nc(NCCN3CCN(C)CC3)c3cnc(-c4cnn5cccnc45)cc31)SCC(=O)N2` [Example 37] showed an IC50 of 5.01 to 50.1 nM.

With `COc1cc2c(cc1-n1nc(NCCN(C)C)c3cnc(-c4cnn5cccnc45)cc31)SCC(=O)N2` [Example 38, 7-(3-((2-(dimethylamino)ethyl)amino)-6-(pyrazolo[1,5-a]pyrimidin-3-yl)-1H-pyrazolo[4,3-c]pyridin-1-yl)-6-methoxy-2H-benzo[b][1,4]thiazin-3(4H)-one], the IC50 was 5.01 to 50.1 nM.

`COc1cc2sncc2cc1-n1nc(NCCN2CCOCC2)c2cnc(-c3cnn4cccnc34)cc21` [Example 39, 1-(6-methoxybenzo[d]isothiazol-5-yl)-N-(2-morpholinoethyl)-6-(pyrazolo[1,5-a]pyrimidin-3-yl)-1H-pyrazolo[4,3-c]pyridin-3-amine]: the IC50 was 5.01 to 50.1 nM.

Regarding `COc1cc2c(cc1-n1nc(C)c3cnc(-c4cnn5cccnc45)cc31)OCCN2` [Example 40, 6-methoxy-7-(3-methyl-6-(pyrazolo[1,5-a]pyrimidin-3-yl)-1H-pyrazolo[4,3-c]pyridin-1-yl)-3,4-dihydro-2H-benzo[b][1,4]oxazine], the IC50 was 5.01 to 50.1 nM.

`COc1cc2c(cc1-n1nc(C)c3cnc(-c4cnn5cccnc45)cc31)CCN2` [Example 41, 1-(6-methoxyindolin-5-yl)-3-methyl-6-(pyrazolo[1,5-a]pyrimidin-3-yl)-1H-pyrazolo[4,3-c]pyridine] showed an IC50 of 5.01 to 50.1 nM.

As to `COc1cc2c(cc1-n1nc(C)c3cnc(-c4cnn5cccnc45)cc31)CCCN2` [Example 42, 7-methoxy-6-(3-methyl-6-(pyrazolo[1,5-a]pyrimidin-3-yl)-1H-pyrazolo[4,3-c]pyridin-1-yl)-1,2,3,4-tetrahydroquinoline], the IC50 was less than 5.01 nM.

Molecule `COc1cc2c(cc1-n1nc(C(=O)NCCCN(C)C)c3cnc(-c4cnn5cccnc45)cc31)OCCN2` [Example 43, N-(3-(dimethylamino)propyl)-1-(6-methoxy-3,4-dihydro-2H-benzo[b][1,4]oxazin-7-yl)-6-(pyrazolo[1,5-a]pyrimidin-3-yl)-1H-pyrazolo[4,3-c]pyridine-3-carboxamide] showed an IC50 of 5.01 to 50.1 nM.

As to `COc1cc2c(cc1-n1nc(C(=O)NC3CN(C)C3)c3cnc(-c4cnn5cccnc45)cc31)OCCN2` [Example 44, 1-(6-methoxy-3,4-dihydro-2H-benzo[b][1,4]oxazin-7-yl)-N-(1-methylazetidin-3-yl)-6-(pyrazolo[1,5-a]pyrimidin-3-yl)-1H-pyrazolo[4,3-c]pyridine-3-carboxamide], the IC50 is 5.01 to 50.1 nM.

Consider `COc1cc2c(cc1-n1nc(C(=O)NC[C@@H]3CN(C)CCO3)c3cnc(-c4cnn5cccnc45)cc31)OCCN2` [Example 45, (R)-1-(6-methoxy-3,4-dihydro-2H-benzo[b][1,4]oxazin-7-yl)-N-((4-methylmorpholin-2-yl)methyl)-6-(pyrazolo[1,5-a]pyrimidin-3-yl)-1H-pyrazolo[4,3-c]pyridine-3-carboxamide], for which the IC50 was 5.01 to 50.1 nM.

`COc1cc2c(cc1-n1nc(C(=O)NCCN3CCC(OC)CC3)c3cnc(-c4cnn5cccnc45)cc31)OCCN2` [Example 46, 1-(6-methoxy-3,4-dihydro-2H-benzo[b][1,4]oxazin-7-yl)-N-(2-(4-methoxypiperidin-1-yl)ethyl)-6-(pyrazolo[1,5-a]pyrimidin-3-yl)-1H-pyrazolo[4,3-c]pyridine-3-carboxamide]: the IC50 is less than 5.01 nM.

With `COCC1CCN(CCNC(=O)c2nn(-c3cc4c(cc3OC)NCCO4)c3cc(-c4cnn5cccnc45)ncc23)CC1` [Example 47, 1-(6-methoxy-3,4-dihydro-2H-benzo[b][1,4]oxazin-7-yl)-N-(2-(4-(methoxymethyl)piperidin-1-yl)ethyl)-6-(pyrazolo[1,5-a]pyrimidin-3-yl)-1H-pyrazolo[4,3-c]pyridine-3-carboxamide], the IC50 is 5.01 to 50.1 nM.

`COc1cc2c(cc1-n1nc(C(=O)NCCN3CC4(CCOCC4)C3)c3cnc(-c4cnn5cccnc45)cc31)OCCN2` [Example 48, N-(2-(7-oxa-2-azaspiro[3.5]nonan-2-yl)ethyl)-1-(6-methoxy-3,4-dihydro-2H-benzo[b][1,4]oxazin-7-yl)-6-(pyrazolo[1,5-a]pyrimidin-3-yl)-1H-pyrazolo[4,3-c]pyridine-3-carboxamide] showed an IC50 of less than 5.01 nM.

In turn, `COc1cc2c(cc1-n1nc(C(=O)NCCN3CCCC4(COC4)C3)c3cnc(-c4cnn5cccnc45)cc31)OCCN2` [Example 49, N-(2-(2-oxa-6-azaspiro[3.5]nonan-6-yl)ethyl)-1-(6-methoxy-3,4-dihydro-2H-benzo[b][1,4]oxazin-7-yl)-6-(pyrazolo[1,5-a]pyrimidin-3-yl)-1H-pyrazolo[4,3-c]pyridine-3-carboxamide] had an IC50 of 5.01 to 50.1 nM.

The molecule `COc1cc2c(cc1-n1nc(C(=O)NCCN3C[C@H]4COC(=O)[C@H]4C3)c3cnc(-c4cnn5cccnc45)cc31)OCCN2` [Example 50, 1-(6-methoxy-3,4-dihydro-2H-benzo[b][1,4]oxazin-7-yl)-N-(2-((3aS,6aR)-1-oxotetrahydro-1H-furo[3,4-c]pyrrol-5(3H)-yl)ethyl)-6-(pyrazolo[1,5-a]pyrimidin-3-yl)-1H-pyrazolo[4,3-c]pyridine-3-carboxamide] showed an IC50 of 5.01 to 50.1 nM.

In turn, `COc1cc2c(cc1-n1nc(C(=O)NCCN3CCC4(CC3)COC(=O)C4)c3cnc(-c4cnn5cccnc45)cc31)OCCN2` [Example 51, 1-(6-methoxy-3,4-dihydro-2H-benzo[b][1,4]oxazin-7-yl)-N-(2-(3-oxo-2-oxa-8-azaspiro[4.5]decan-8-yl)ethyl)-6-(pyrazolo[1,5-a]pyrimidin-3-yl)-1H-pyrazolo[4,3-c]pyridine-3-carboxamide] had an IC50 of less than 5.01 nM.

`COc1cc2c(cc1-n1nc(C(=O)NCCN3CCC4(CCOC4=O)CC3)c3cnc(-c4cnn5cccnc45)cc31)OCCN2` [Example 52, 1-(6-methoxy-3,4-dihydro-2H-benzo[b][1,4]oxazin-7-yl)-N-(2-(1-oxo-2-oxa-8-azaspiro[4.5]decan-8-yl)ethyl)-6-(pyrazolo[1,5-a]pyrimidin-3-yl)-1H-pyrazolo[4,3-c]pyridine-3-carboxamide] showed an IC50 of less than 5.01 nM.
